Source: patent US11701379B2, “In vitro and in vivo intracellular delivery of siRNA via self-assembled nanopieces” (Rhode Island Hospital, priority 2018, dated 2023)

Tested on: MMP-13 mRNA
Assay: MMP-13 molecular beacon validation in chondrocytes with/without IL-1β
Assay type: cell-based, mouse
Settings: realtime rtPCR
Description: Fluorescence labeled GAPDH molecular beacon and fluorescence labeled MMP-13 molecular beacon or fluorescence labeled scrambled molecular beacon delivered with Nanopieces was added into chondrocytes under standard cell culture conditions or stimulated with 10 ng/mL IL-1β (FIG. 29).
Using an established method (Tyagi et al Nat. Biotech, 1998, 16:49-53), MBs were designed to target mouse MMP-13 or GAPDH mRNA with a fluorophore/quench pair. Scramble sequence MB (Scramble) was verified to not bind with any mouse mRNA via BLAST. In vitro delivery and validation: MBs were delivered into chondrocytes by Nanopieces. Specifically, after stimulation with IL-1β for 24 hours, chondrocytes were co-transfected GAPDH and scramble MBs or GAPDH and MMP-13 MBs via Nanopieces. Real time RT-PCR and fluorescence microscopy were used to verify the stimulation of MMP-13 expression and the successful fluorescence signal resulted from MMP-13 MB.
To test the efficacy of mRNA detection in chondrocytes using MBs delivered by Nanopieces, primary mouse chondrocytes were transfected with MBs either with or without IL-1β treatment. Before IL-1β treatment, the housekeeping GAPDH MB was detected while the MMP-13 MB was not (FIG. 29, left panels). In contrast, after IL-1β treatment, both GAPDH MB and MMP-13 MB were detected, indicating the induction of MMP-13 mRNA levels by IL-1β (FIG. 29, right panels). […]

Substance: IL-1β: cytokine used to stimulate chondrocytes
- up-regulation of MMP-13 mRNA level: about 10 times
